As a reminder, the inhibition is the drop in the measured response relative to a control, in per cent. Low readings indicate little suppression, high ones strong suppression.

These results are taken from patent US20190119284A1, “ErbB Inhibitors and Uses Thereof” (The Regents of the University of California, priority 2016, published 2019).

The target of one test is TIE2 (Homo sapiens, UniProt Q02763). Nature of the test: Nanosyn in vitro kinase profiling: TIE2. It is filed as biochemical. As for the experimental part: (§1) This was confirmed by in vitro profiling against a panel of kinases, with compound 2 only showing potent inhibition of EGFR and Ab1 (Table 2).
Sequence of TIE2 (Q02763 23-1124, species assumed): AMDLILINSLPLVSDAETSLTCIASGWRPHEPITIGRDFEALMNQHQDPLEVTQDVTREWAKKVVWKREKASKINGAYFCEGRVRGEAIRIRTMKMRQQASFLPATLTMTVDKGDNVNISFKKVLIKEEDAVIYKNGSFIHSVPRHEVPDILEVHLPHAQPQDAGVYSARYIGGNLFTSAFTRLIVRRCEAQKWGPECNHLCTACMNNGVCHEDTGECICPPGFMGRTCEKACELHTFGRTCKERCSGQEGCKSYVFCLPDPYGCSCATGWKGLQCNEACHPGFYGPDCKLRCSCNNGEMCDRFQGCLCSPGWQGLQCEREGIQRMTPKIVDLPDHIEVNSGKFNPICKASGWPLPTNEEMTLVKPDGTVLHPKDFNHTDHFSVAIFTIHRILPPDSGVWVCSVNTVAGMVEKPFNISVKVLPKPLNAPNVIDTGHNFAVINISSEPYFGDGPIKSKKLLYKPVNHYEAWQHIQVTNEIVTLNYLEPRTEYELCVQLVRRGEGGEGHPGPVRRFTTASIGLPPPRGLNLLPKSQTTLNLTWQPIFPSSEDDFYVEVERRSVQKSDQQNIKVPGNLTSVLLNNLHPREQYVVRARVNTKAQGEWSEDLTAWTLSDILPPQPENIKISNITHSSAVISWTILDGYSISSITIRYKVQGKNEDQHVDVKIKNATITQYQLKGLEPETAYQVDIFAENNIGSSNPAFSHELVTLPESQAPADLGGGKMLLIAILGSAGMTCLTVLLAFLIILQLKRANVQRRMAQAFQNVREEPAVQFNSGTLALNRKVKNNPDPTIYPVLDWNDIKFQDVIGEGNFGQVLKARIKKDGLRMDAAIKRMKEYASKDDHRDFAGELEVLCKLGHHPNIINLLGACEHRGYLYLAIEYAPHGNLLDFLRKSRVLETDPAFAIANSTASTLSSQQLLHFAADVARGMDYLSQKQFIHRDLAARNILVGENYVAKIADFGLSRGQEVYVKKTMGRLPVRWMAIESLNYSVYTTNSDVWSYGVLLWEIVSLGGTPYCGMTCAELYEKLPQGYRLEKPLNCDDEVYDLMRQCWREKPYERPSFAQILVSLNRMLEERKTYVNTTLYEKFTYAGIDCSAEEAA
(§2) In vitro Kinome Screen. In vitro profiling of compound 2 at 100 nM was conducted by Nanosyn.

A further test deals with TRKA (Homo sapiens, UniProt P04629). Nature of the test: Nanosyn in vitro kinase profiling: TRKA. In kind it is biochemical. As for the experimental part: as §1, §2
Sequence of TRKA (P04629 33-796, species assumed): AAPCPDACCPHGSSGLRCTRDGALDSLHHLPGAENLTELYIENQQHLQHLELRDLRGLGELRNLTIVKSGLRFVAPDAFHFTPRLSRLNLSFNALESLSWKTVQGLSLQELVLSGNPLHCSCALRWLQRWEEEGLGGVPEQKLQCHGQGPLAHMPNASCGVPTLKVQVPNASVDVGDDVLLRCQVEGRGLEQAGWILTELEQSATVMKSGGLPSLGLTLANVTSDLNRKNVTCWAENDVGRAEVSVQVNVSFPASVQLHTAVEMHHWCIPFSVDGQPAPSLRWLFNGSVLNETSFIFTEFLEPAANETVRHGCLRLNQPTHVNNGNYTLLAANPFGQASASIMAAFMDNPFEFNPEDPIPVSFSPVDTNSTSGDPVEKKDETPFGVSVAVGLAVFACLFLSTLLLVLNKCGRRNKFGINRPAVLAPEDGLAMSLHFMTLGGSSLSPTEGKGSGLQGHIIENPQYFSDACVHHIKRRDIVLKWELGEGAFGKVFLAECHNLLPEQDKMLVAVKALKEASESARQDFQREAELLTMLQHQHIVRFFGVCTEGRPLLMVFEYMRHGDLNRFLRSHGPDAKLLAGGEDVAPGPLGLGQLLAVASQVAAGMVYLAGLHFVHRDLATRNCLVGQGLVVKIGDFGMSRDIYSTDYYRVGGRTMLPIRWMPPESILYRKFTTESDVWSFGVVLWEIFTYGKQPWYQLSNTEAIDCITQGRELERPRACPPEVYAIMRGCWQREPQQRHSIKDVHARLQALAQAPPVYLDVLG
The next test concerns wt HER2 or HER2 T798M. Nature of the test: HEK-293T cells transfected with wt HER2 or HER2 T798M. In kind it is cell-based. Conditions: HER2 T798M vs wt, 1 nM-10 μM.
A further test concerns the target T1, ErbB3-ICD665-1323 (Homo sapiens, UniProt P21860).
T1 construct: The HER3 intracellular domain (665-1323) was concentrated on vesicles; made in house
Nature of the test: HER3 Autophosphorylation Assay. It is filed as biochemical. Conditions: purified clustered HER3 intracellular domain. As for the experimental part: HER3 Autophosphorylation Assay. ErbB3-ICD^665-1323 wild-type expression and purification was performed exactly as previously described. To monitor the change in autophosphorylation, 1 μM ErbB3-ICD^665-1323 protein was incubated with inhibitors (varied concentrations noted in the figure) and DOGS-Ni-NTA (prepared as described in Zhang et al.[4]) in 100 mM MOPS pH 7.4, containing 200 mM NaCl, divalent cations (2 mM MnCl2 plus 5 mM MgCl2), 5% glycerol, 0.1 mM DTT and 200 μM ATP for 1 hour at 25 ° C., and the reactions were stopped by adding 50 mM EDTA and SDS-PAGE gel-loading buffer for rapid qualitative comparison of autophosphorylation by SDS-PAGE and immunoblotting with anti-phosphotyrosine (pY20) and anti-(His)5.

A further test concerns SK-BR-3 cells. Put plainly: 72 h proliferation of SK-BR-3 cells in the presence or absence of NRG. In kind it is cell-based. Conditions: SK-BR-3, 72 h dose response +/- NRG. As for the experimental part: FIGS. 1A-1E. NRG rescues HER2 over-expressing cancer cells from HER2 inhibitors. […] FIG 1B: Same experiment as depicted in FIG. 1A, but with the inhibitor TAK-285. FIG. 1C: The ability of NRG to rescue SK-BR-3 and BT-474 cell proliferation from HER2 inhibitors is dose dependent. Cells were treated with 1 μM of the indicated inhibitor in the presence of varying concentrations of NRG, and proliferation was read out after 72 h (mean±SD, n=3). […] FIG. 1E: Cartoon schematic of the EGFR family kinase domain asymmetric dimer. The C-terminal domain of the ‘activator’ kinase (right) interacts with the N-terminal portion of the ‘receiver’ kinase (left). This interaction stabilizes the active conformation of the receiver kinase identified by the ‘in’ conformation of the receiver kinase's α-C helix and the ordered extension of the activation loop.
(§3) FIGS. 5A-5D. […] FIG. 5A: Chemical structure of compound 3 (also referred to herein as compound 178). FIG. 5B: Proliferation curves for compound 3 against the Ba/F3 cell line panel (mean±SD, n=3). […] FIG. 5D: The same assay in FIG. 2A was performed with compound 3 in SK-BR-3 cells.

Test [1] has as its system mutationally activated EGFR. Nature of the test: proliferation assays of EGFR cell lines (FIG. 7C). It is filed as cell-based. Conditions: in contrast to lapatinib.
For test [2], the target named is mutationally activated forms of EGFR (Homo sapiens, UniProt P00533, DEL746-750). Nature of the test: EGFR phosphosite signaling in HCC 827 cells. In kind it is cell-based. On the set-up: endogenous in cells; host or cells: HCC 827 (A1). Conditions: concentration giving near complete inhibition.
Sequence of mutationally activated forms of EGFR (P00533 with tags, fused parts or gaps DEL746-750): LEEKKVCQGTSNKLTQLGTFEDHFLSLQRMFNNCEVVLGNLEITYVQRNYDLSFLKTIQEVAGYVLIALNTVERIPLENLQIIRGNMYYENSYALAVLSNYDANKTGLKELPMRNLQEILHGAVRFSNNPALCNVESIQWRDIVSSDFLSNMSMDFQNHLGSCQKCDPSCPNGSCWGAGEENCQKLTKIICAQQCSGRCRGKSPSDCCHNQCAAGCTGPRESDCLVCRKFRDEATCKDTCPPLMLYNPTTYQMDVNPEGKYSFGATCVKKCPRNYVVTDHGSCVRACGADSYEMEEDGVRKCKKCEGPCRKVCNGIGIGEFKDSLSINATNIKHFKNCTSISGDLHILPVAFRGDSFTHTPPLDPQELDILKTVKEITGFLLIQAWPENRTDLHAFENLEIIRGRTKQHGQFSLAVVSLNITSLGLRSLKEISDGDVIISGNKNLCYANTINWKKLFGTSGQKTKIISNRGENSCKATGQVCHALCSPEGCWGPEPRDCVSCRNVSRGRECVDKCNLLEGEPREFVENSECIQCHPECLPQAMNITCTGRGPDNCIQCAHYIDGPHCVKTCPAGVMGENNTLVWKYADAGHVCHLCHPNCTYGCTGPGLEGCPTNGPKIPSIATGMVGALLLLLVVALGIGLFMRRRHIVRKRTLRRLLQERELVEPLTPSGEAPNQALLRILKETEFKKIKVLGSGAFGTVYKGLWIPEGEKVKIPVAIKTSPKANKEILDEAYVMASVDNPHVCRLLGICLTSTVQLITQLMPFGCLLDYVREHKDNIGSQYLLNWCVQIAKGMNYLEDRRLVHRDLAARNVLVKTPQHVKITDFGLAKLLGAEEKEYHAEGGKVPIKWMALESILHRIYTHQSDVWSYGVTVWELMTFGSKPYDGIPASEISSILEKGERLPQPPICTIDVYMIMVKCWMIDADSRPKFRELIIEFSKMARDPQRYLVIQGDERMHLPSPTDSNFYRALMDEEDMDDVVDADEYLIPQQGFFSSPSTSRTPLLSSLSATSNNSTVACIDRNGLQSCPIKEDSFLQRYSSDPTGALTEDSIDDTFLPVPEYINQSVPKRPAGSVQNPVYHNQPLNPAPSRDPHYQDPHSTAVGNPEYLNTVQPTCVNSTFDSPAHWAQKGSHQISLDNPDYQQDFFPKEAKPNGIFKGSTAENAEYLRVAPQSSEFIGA
The next test concerns FaDu cells. Nature of the test: 72 h proliferation of FaDu cells. It is filed as cell-based. The source says:
FIGS. 20A-20B. […] FIG. 20A. […] FIG. 20B.

Test [3] deals with HER2/HER3 signaling in CW-2 cells (HER3 E928G). Put plainly: HER2/HER3 signaling in CW-2 cells +/- NRG, 1 h. In kind it is cell-based. Conditions: CW-2, dose response.
The subject of test [4] is HER2/HER3 signaling in SK-BR-3 cells. Put plainly: HER2/HER3 signaling in SK-BR-3 cells (western blot). It is filed as cell-based. The source says:
FIGS. 1A-1E. […] FIG. 1E: Cartoon schematic of the EGFR family kinase domain asymmetric dimer. The C-terminal domain of the ‘activator’ kinase (right) interacts with the N-terminal portion of the ‘receiver’ kinase (left). This interaction stabilizes the active conformation of the receiver kinase identified by the ‘in’ conformation of the receiver kinase's α-C helix and the ordered extension of the activation loop.
(In general: In western blotting, separated proteins are transferred to a membrane and probed.)

Test [5] deals with Ba/F3 cell line panel (HER2YF/HER3). Nature of the test: 48 h proliferation of the Ba/F3 cell line panel (CellTiter-Glo). It is filed as cell-based. Conditions: 48 h proliferation curves. As for the experimental part: FIGS. 3A-3D. Design and execution of a high-throughput screen identifies a novel HER2/HER3 inhibitor. FIG. 3A: 2YF/3wt cells were incubated in the presence or absence of NRG for 48 h and proliferation was assessed by CellTiter-Glo (mean±SD, n=1). […] FIG. 3C: Structure and proliferation curves for hit compound 1 (also referred herein as compound 185) against the Ba/F3 cell line panel (mean±SD, n=3), FIG. 3D: Structure and proliferation curves for compound 2 (also referred to herein as compound 55A) against the panel of Ba/F3 cell lines (mean±SD, n=3).
FIGS. 4A-4F. Compound 2 is a selective Type I inhibitor for HER2. […] FIG. 4B: Thermal stabilization of the HER3 kinase domain by either compound 2 or ATP as determined by Thermofluor (mean±SD, n=3). FIGS. 4C-4D: The crystal structure of either erlotinib (FIG. 4C) or 2 (FIG. 4D) bound to EGFR V924R. The kinase domain in complex with compound 2 has been stabilized in the active confirmation by drug binding, despite the mutation—as evidenced by the ordered extension of the activation loop and the inward positioning of the α-C helix.
as §3
FIG. 10. […]
For orientation: In ATP-based viability assays light output follows the ATP content of the culture.

The subject of test [6] is 2YFTM/HER3wt and 2YFTM/3TM Ba/F3 cells. Put plainly: Ba/F3 proliferation assay, HER2 gatekeeper mutant lines. In kind it is cell-based. Conditions: Ba/F3 lines with methionine gatekeeper mutation in HER2. As for the experimental part: Proliferation Assays. […] For all normalized assays, proliferation was normalized to the DMSO control condition. All graphs were plotted in GraphPad Prism 6 and fit with a non-linear regression of the log(inhibitor) vs response with a variable slope where shown. All graphs are averages (+/−standard deviation) of biological triplicates each performed in technical triplicate unless otherwise noted. If only one biological replicate was performed standard deviations were derived from the technical replicates.

T1 sequence (P21860 684-1342): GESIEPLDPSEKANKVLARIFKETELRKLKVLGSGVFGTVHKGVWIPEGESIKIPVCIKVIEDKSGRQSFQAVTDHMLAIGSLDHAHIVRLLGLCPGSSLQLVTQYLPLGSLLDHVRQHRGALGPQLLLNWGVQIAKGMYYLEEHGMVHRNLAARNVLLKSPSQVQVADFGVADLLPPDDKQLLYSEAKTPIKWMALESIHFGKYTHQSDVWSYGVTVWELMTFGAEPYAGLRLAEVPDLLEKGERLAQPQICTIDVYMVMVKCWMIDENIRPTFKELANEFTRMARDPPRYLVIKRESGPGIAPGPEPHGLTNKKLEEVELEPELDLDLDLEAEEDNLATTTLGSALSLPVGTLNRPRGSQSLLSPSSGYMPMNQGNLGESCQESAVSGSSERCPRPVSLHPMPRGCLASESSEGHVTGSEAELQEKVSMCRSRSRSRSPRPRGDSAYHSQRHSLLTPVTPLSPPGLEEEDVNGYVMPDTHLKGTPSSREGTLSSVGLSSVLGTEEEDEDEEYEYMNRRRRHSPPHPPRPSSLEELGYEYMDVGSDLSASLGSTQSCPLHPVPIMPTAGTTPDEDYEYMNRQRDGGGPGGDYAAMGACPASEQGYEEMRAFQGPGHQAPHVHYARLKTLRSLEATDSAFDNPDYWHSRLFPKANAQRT

In the case of `COc1ccc(-c2ccco2)cc1Nc1ncnc2[nH]nc(-c3ccco3)c12` [compound 2, 3-(furan-2-yl)-N-(5-(furan-2-yl)-2-methoxyphenyl)-1H-pyrazolo[3,4-d]pyrimidin-4-amine], the inhibition at 0.1 µM against TIE2 (compound at 100 nM) is 12.8%; against TRKA (compound at 100 nM) it was 2.38%. In addition, the inhibition at 1 µM was 59.7% against TIE2 (compound at 1 μM) and 4.5% against TRKA (compound at 1 μM). In the test on wt HER2 or HER2 T798M, the “effect of gatekeeper mutation on binding affinity” value is “reduces the binding affinity”. Besides, at ErbB3-ICD665-1323, the “inhibition of HER3 auto-phosphorylation” value was “able to inhibit”.
Regarding `COc1ccc(-c2ccoc2)cc1Nc1ncnc2[nH]cc(-c3cc[nH]n3)c12` [compound 3, N-(5-(furan-3-yl)-2-methoxyphenyl)-5-(1H-pyrazol-3-yl)-7H-pyrrolo[2,3-d]pyrimidin-4-amine], in the test with SK-BR-3 cells, the “sensitivity of proliferation inhibition to NRG” value is “insensitive to the presence of NRG”. Besides, the “preferential inhibition in proliferation assays” value in test [1] was “preferential inhibition of the mutationally activated EGFR”. For the same compound, the “near complete inhibition of multiple phosphosites on EGFR” value in [2] is given as “less than 10 nM”. The “inhibition of proliferation relative to current HER2 inhibitors” value with FaDu cells is “more effective than current HER2 inhibitors”.
As for `CS(=O)(=O)CCNCc1ccc(-c2ccc3ncnc(Nc4ccc(OCc5cccc(F)c5)c(Cl)c4)c3c2)o1` [lapatinib], the “HER2/HER3 signaling +/- NRG” value in test [3] is reported as “NRG rescues HER2/HER3 signaling”. In test [4] (SK-BR-3, 1 μM lapatinib +/- NRG, 1 h), the “activation of EGFR family members” value is “HER3 is the only member of the EGFR family who remains activated”. Further, the “HER2/HER3 signaling after NRG pre-treatment” value in test [4] (SK-BR-3, NRG or vehicle 15 min then dose response 15 min) was “NRG pre-treatment rescues HER2/HER3 signaling”. Besides, the “efficacy on signaling, 15 min pre-treat vs simultaneous addition with NRG” value in test [4] (SK-BR-3, serum starved 24 h) is reported as “reduced efficacy of lapatinib when simultaneously added with NRG”. Moreover, the “HER2/HER3 signaling over a time-course” value in test [4] (SK-BR-3 treated with lapatinib, NRG, or both) was “NRG rescues p-HER3 and all downstream signaling at all time points examined”. Further, the “level of pathway inhibition distinguished by the Ba/F3 panel” value in test [5] is listed as “specifically inhibit signaling at the HER2/HER3 level”. The inhibition of proliferation entry in test [6] is recorded as “unable to inhibit the proliferation”.
